Usually melting point stands for the temperature, or range, at which the solid turns liquid. `CC1CC(=O)NN=C1c1ccc(NC(=O)C2CC2)cc1` (configuration not stated) returned a melting point of 267 to 268 °C.
In the case of `CC(C)n1nc(-c2c(-c3ccccc3)nn3cccc(O)c23)ccc1=O`, the melting point lay in the range of 229 to 230 °C.
The figure for `CCCC(=O)Nc1cccc2c1C(=O)N(C1CCC(=O)NC1=O)C2=O` (configuration not stated) is 171 to 173 °C; for `C/C(=C\c1ccc(P(=O)(O)O)cc1)c1ccc2c(c1)C(C)(C)CCC2(C)C` it is 208 to 209 °C.
With `CCN1c2ncc(C#Cc3ccccc3)cc2C(=O)N(C)c2cccnc21`, the melting point lay within 228 to 229 °C.
Molecule `CC1CC(c2ccc(OCC(=O)O)c(Cl)c2Cl)=CC(=O)C1C` (configuration not stated) returned a melting point of 151 to 153 °C.
As to `CN(C)C(=O)Nc1cccc(C(=O)c2ccccc2)c1`, the melting point fell in the range of 104 to 105 °C.
`CCCCCC1Cc2cc(OCC(=O)O)c(Cl)c(Cl)c2C1=O` (configuration not stated) returned a melting point of 192 to 195 °C.
The figure for `C#Cc1cc(NC(=O)c2cnn(-c3ccc(Cl)cc3)c2C)ccc1N1CCC(N2CCOCC2)CC1` is 203 to 205 °C; for `O=C(O)COC1CCN(Cc2ccc3c(c2)Nc2nccnc2S3)CC1` it is 204 to 207 °C; for `COc1cc(Nc2c(C#N)cnc3cc(-c4ncccc4CN4CCOCC4)ccc23)c(Cl)cc1Cl` it is 151 to 154 °C.
For `CC1(C)COCC(=O)N1NCc1ccccc1` the value was 76 to 77 °C.
`CC(SC(=O)c1ccccc1)C(=O)N1c2ccccc2CCC1C(=O)O` (configuration not stated) displayed a melting point of 157 to 159 °C.
The figure for `C=CCOC1=NC(OCC)=NS(=O)(=O)N1C` is 56 to 60 °C.
For `O=C(O)[C@H](Cc1ccccc1)Nc1c(NCc2cccnc2)c(=O)c1=O` the value was 259 to 261 °C; for `CCCCC(=O)N(Cc1ccc(-c2ccccc2-c2nnn[nH]2)cc1Br)[C@H](C(=O)OCc1ccccc1)C(C)C`, 104 to 106 °C; for `CCCN(CCC)C(=O)Cn1c(-c2ccc(F)cc2)nc2cccnc21`, 135 to 136 °C.
Consider `Cc1nc2c(N)nc3ccccc3c2n1CCOCCN`, for which the melting point fell in the range of 155 to 157 °C.
`CC1COc2c(-c3ccccc3)ccc3c(=O)c(C(=O)O)cn1c23` (configuration not stated): the melting point fell in the range of 295 to 296 °C.
The figure for `CC(=O)OC1C=C(C)C(=O)CC(C)(C)C1OC(=O)C=Cc1ccccc1` (configuration not stated) is 64 to 65 °C.
The figure for `COc1ccc(C(=O)O)cc1Oc1ccccc1` is 186 to 187 °C; for `C#CCOc1cc(-n2nc(C(C)(C)C)oc2=O)c(F)cc1Cl` it is 72 to 73 °C; for `CCc1ccc(C(=NO)c2ccc(Cl)cc2)c(O)c1` it is 159 to 161 °C.
Consider `N#CCc1cccc([N+](=O)[O-])c1[N+](=O)[O-]`, for which the melting point is 88 to 90 °C.
For `Cc1cccc2c1NC(=O)CC2(C)C` the value was 120 °C; for `COc1cc(-c2cc3ccccc3[nH]2)ccc1OS(C)(=O)=O`, 194 °C; for `COc1cc2c(cc1Nc1ncc(Cl)c(Nc3ccccc3S(=O)(=O)C(C)C)n1)CCN(CC(=O)N1CCOCC1)CC2`, 100 °C.
The figure for `O=Cc1cc(-n2nnnc2C(F)(F)F)ccc1OC(F)(F)F` is 40 to 42 °C; for `CC(C)n1nc(OCC(=O)c2ccc(F)cc2)c(-c2ccc(F)cc2)c1-c1ccc(S(C)(=O)=O)cc1` it is 184 to 185 °C; for `CCOC(=O)C1=C(C)NC(C)=C(C(=O)OCC)C1c1nc(-c2ccc(OC)cc2)c(-c2ccc(OC)cc2)s1` it is 177 to 178 °C.
The molecule `CC(C)OC(=O)NC(C(=O)N1CCCC1C(=O)O)C(C)(C)SC(C)C` (configuration not stated) came in with a melting point of 128 to 130 °C.
The figure for `c1ccc(CN(Cc2ccccc2)c2ccc3sccc3c2)cc1` is 114 to 117 °C.
The figure for `CC(=O)c1ccc(Nc2cccc(Br)c2)c([N+](=O)[O-])c1` is 142 to 144 °C.
Take `O=S(=O)(c1ncc(Cl)cn1)c1cccs1`: the melting point lay within 116 to 117 °C.
The figure for `CCOC(=O)COc1cc(Cl)c2c(=O)c(-c3ccc(OC)cc3)coc2c1` is 121 to 122 °C.
The figure for `CC(=O)SCCc1ccc(C=O)cc1` is 35 °C; for `Cn1c(=O)c2c(ncn2CCCCCCl)n(C)c1=O` it is 78 to 80 °C.
In turn, `O=C(O)C(=O)c1ccc(OCC(=O)c2cccc3ccccc23)cc1` gave a melting point of 141 to 143 °C.
For `CC1CCc2c(N3CCCCC3)c(F)cc3c(=O)c(C(=O)O)cn1c23` (configuration not stated) the value was 258 to 261 °C; for `Cn1c(=O)n(-c2ccccc2)c(=O)n1SC(Cl)(Cl)Cl`, 154 °C; for `CCOC(=O)C(N)Cc1c(OCC)noc1C(=O)O` (racemic), 159 to 161 °C.
For `N#Cc1ccc(C(F)(F)C23CCCN2C(=O)N(c2cc(Cl)cc(Cl)c2)C3=O)cc1` (configuration not stated) the value was 66 °C; for `COc1ccc(C)nc1I`, 45 to 50 °C; for `O=C(Nc1cccc(Br)c1)Oc1ccc2ncccc2c1`, 260 °C.
With `CC(C)N1CCN(CCCOc2ccc3nc(C#N)nc(NCC(C)(C)C)c3c2)CC1`, the melting point is 103 to 105 °C.
The figure for `CCOc1cc(N(Cc2cncnc2)c2ccc(C(=O)O)cc2)ccc1OC(F)F` is 165 to 166 °C.
Molecule `Cn1c(=O)c2c(ncn2Cc2noc(CCO)n2)n(C)c1=O` had a melting point of 145 °C.
The molecule `Nc1n[nH]c2c1CCC2` returned a melting point of 116 to 120 °C.
The figure for `CS(=O)(=O)c1c(C(=O)c2cnoc2C2CC2)ccc(F)c1F` is 115 to 118 °C; for `COc1cc(Cl)cc(CO)c1Cl` it is 58 to 64 °C.
As for `NCc1ccccc1-c1ccc(C(=O)N2Cc3ccc(C(=O)NCc4cccnc4)n3Cc3ccccc32)cc1`, the melting point was in the range of 115 to 120 °C.
`COCCOCOc1c(C(C)(C)C)cc(C(=N)NN)cc1C(C)(C)C` displayed a melting point of 133 °C.
The figure for `O=C(NN=Cc1ccccc1)c1ccc(C(F)(F)F)cc1` is 216 to 217 °C.
For `CCC(Oc1cccc(C(F)(F)F)c1)C(=O)NCc1ccccc1Cl` (configuration not stated) the value was 66 to 68 °C.
For `Cc1cc(Oc2ccc(F)cc2[N+](=O)[O-])n[nH]1` the value was 81 to 84 °C; for `COc1cc(CC(=O)NCCCOc2ccc(C)c(C)c2)ccc1OCCN`, 103 to 106 °C; for `Nc1nc2ccc(OCc3c(F)cccc3F)cc2s1`, 178 °C.
With `CN(Cc1ccc(N)cc1)C1CCOCC1`, the melting point was 93 to 94 °C.
Molecule `CC(C)n1nc(O)nc1N(C)C` returned a melting point of 111 to 112 °C.
`CN(C)C=CC(=O)c1cncnc1` displayed a melting point of 133 to 135 °C.
Turning to `Cc1nn(-c2ccccn2)c(=O)cc1-c1ccc(O)cc1`, the melting point lay within 252 to 254 °C.
For `FC(F)(F)Sc1cc[nH]c1-c1ccc(Cl)cc1` the value was 59 to 64 °C; for `CCn1c2ccccc2c2cc(C=C(C#N)c3ccc(C(F)(F)F)cc3)ccc21`, 164 to 165 °C; for `CCCn1c(COCC)nc2c(N)nc3ccc(OC4CCNCC4)cc3c21`, 176 to 178 °C.
The molecule `CC(=O)N=NCc1ccc(OCCCCCOc2ccc(C(=O)N(c3ccccc3)C(C)C)c(Cl)c2)cc1` gave a melting point of 58 to 60 °C.
As to `CN1Cc2c(Cl)ncn2-c2cccc(Cl)c2C1=O`, the melting point fell in the range of 211 to 212 °C.
For `COc1cc([N+](=O)[O-])ccc1F`, the melting point lay in the range of 69 to 71 °C.
The figure for `CC(C)OC(=O)Nc1ccc(-c2ccnc3c(C(=O)c4cccs4)cnn23)s1` is 210 to 215 °C.
The figure for `CN1CCC(=O)N(c2cccc(Cl)c2Cl)C1=O` is 163 to 165 °C; for `COCCOCc1c(F)cccc1-c1ccc2nc(-c3ccc(Cl)cc3)cn2c1` it is 104 to 105 °C.
For `CSCC(=O)c1cc(C(C)(C)C)c(O)c(C(C)(C)C)c1` the value was 108 to 110 °C.
`CCOC(=O)CCCCC(c1ccc(C)s1)N(O)C(N)=O` (configuration not stated) had a melting point of 106 to 107 °C.
As for `CN1C(=O)N(c2ccccc2)S[N+]1(C)[O-]` (configuration not stated), the melting point fell in the range of 77 to 79 °C.
The figure for `CC(NC(=O)CCCBr)c1ccccc1` (configuration not stated) is 62 to 63 °C.
The molecule `S=C(Nc1cccc(Br)c1)N1CCCSC1c1ccccc1` (configuration not stated) showed a melting point of 135 to 137 °C.
`CC[C@H](NC(C)=O)c1nc2c(C(F)(F)F)cccc2c(O)c1C(=O)Nc1nccs1` had a melting point of 275 °C.
For `CCOCc1nc2c(N)nc3cc(OCc4ccccc4)ccc3c2n1CC(C)C` the value was 201 to 203 °C; for `O=C(c1ccc(O)cc1)N1CC=CCC1`, 202 to 206 °C; for `CC(C)(O)c1ccc(-c2cnc3[nH]c(=O)n(CC4CCOCC4)c3n2)cn1`, 207 to 209 °C.
As to `CCOC(=O)Cn1c2c([nH]c(=O)c1=O)CCC1=C2C=C(n2ccc(C(=O)O)c2)CC1`, the melting point is 282 °C.
The figure for `CCOP(=O)(OCC)C(C)(C)NC(=O)c1cccc([N+](=O)[O-])c1` is 95 to 96 °C.
Turning to `CN1CCCC(c2cccc3ccc(N)cc23)C1` (configuration not stated), the melting point is 117 to 120 °C.
The figure for `O=c1[nH]c2ccccc2n1C/C=C/CCl` is 120 °C; for `Oc1ccc2[nH]cc(CCCCN3CCN(c4ccc5c(c4)CCCO5)CC3)c2c1` it is 220 to 222 °C; for `CNS(=O)(=O)c1cc(C(=O)NNC(=O)c2occ(-c3ccccc3)c2-c2ccccc2)ccc1O` it is 119 to 120 °C.
In the case of `CC(CCCCCCCCCCCCC(=O)O)CC(=O)O` (configuration not stated), the melting point is 77 to 78 °C.
On to `COCc1ccc(-c2cn(-c3cc(C(=O)OC)c([N+](=O)[O-])cc3C(F)(F)F)cn2)cc1`, for which the melting point was 135 to 137 °C.
As to `CCCc1nn(C)c2c(NCc3ccc4c(c3)OCO4)nc(-c3ccc(C(=O)O)cc3)nc12`, the melting point amounted to 114 °C.
`[N-]=[N+]=NC1CC(n2cnc3c(N4CCC4)nc(N)nc32)OC1CO` (configuration not stated) displayed a melting point of 141 to 143 °C.
For the molecule `COc1ccc(C(O)(CN2CCNC2=O)c2ccccc2)cc1OC` (configuration not stated), the melting point is 154 °C.
Molecule `CCOc1ccc(C(=O)OC)c(Cl)n1` returned a melting point of 46 to 48 °C.
For `COc1ccc(/C=C(\C#N)c2cccc(Cl)c2)cc1OC1CCCC1` the value was 98 to 100 °C.

These data come from a melting point compilation (Tetko et al.; mined from patent text by program, amines drawn as free bases though some values may be those of a salt).
